Reference: publication PMC10712729, “A Phase I Trial of the Dual MET Kinase/OCT-2 Inhibitor OMO-1 in Metastatic Solid Malignancies Including MET Exon 14 Mutated Lung Cancer” (The Oncologist, 2023)

Experiment: Pharmacokinetics of OMO-1 in plasma, Module 1 Part A
Assay type: in vivo, human
Protocol: The starting dose was 100 mg BID.
Analysis was performed using PKSolver to define Cmax, trough concentration (Ctrough), AUC∞, AUC0-last, Vd, clearance, elimination half-life (t½), and Tmax of OMO-1.[24] In the paired biopsy analysis, expression of total MET and phosphorylated MET was performed by immunohistochemistry.

In the case of `FC(F)(c1ccc2ncccc2c1)c1nnc2ccc(-c3ccncc3)nn12` [OMO-1], the “plasma exposure as measured by AUC(0-8 h), dose proportionality” value (100 to 400 mg BID) is reported as “dose-proportional without accumulation”, the “AUC(0-8 h)” value (RP2D of 250 mg BID) is reported as 5684 ng·h/mL and the Cmax (RP2D of 250 mg BID) is reported as 1372 ng/mL. The T½ (oral, patients) was 2.5 to 3 h and the “median Tmax” value (range across the dose escalation cohorts, second daily dose 4-5 h after first) was 5 to 7.8 h.
